Assay results as given in US11786481B2, “Formulation and process for modulating wound healing” (BioMendics, LLC, priority 2015, dated 2023).

Experiments:
[1] = tested on: skin (keratinocyte layer, dermis); experiment: H&E staining of excised skin samples; assay type: in vivo; conditions: 5% (w/v)
Description: Example 11: Excised skin samples treated with a control or with 5% (w/v) 4-hydroxy-4′-methoxytolan.

[2] = tested on: full thickness excision wounds; experiment: In vivo evaluation for wound healing: full thickness excision wounds on the dorsum of mice
Description: Example 10: In Vivo Evaluation of the LCB's for Wound Healing: Twenty, 5-6 week old Balbc/J (stock #000651) male mice were transferred to Jackson Labs in vivo research laboratory in Sacramento, Calif. The mice were ear notched for identification and housed in individually and positively ventilated polycarbonate cages with HEPA filtered air. Bed-o-cob corn cob bedding was used and cages were changed every two weeks. The animal room is lighted entirely with artificial fluorescent lighting, with a controlled 12 h light/dark cycle. The normal temperature and relative humidity ranges in the animal rooms are 22 t 4° C. and 50 t 15%, respectively. The animal rooms were set to have 15 air exchanges per hour. Filtered tap water, acidified to a pH of 2.8 to 3.1, and rodent chow was provided ad libitum. Following a 5-7 days acclimation, mice were randomized by body weight into 2 cohorts of 10 mice each. On study day 0, mice were anesthetized and two full thickness excision wounds (˜6 mm) were made on the dorsum (backs) of mice. One of the wounds was covered using a semi-occlusive polyurethane dressing (Tegaderm™). Dressings covered the wounds for 5 consecutive (5) days from the day of wounding (d 0). The doses of 4-hydroxy-4′-methoxytolan were based on those that promoted lesion healing in mice in previous herpes virus studies. Wound measurements were made on day 5, 7, 9 and 11. Digital images of wounds were taken of each mouse. Test agents were a viscous paste and wounds were surrounded with a saddle glued in place to eliminate cross contamination and wound closure due to contraction. Therefore, changes in wound area are due to re-epithelization. During the five days all wounds are covered with glycerin (control) or glycerin and test agent. At day 5, test agents were removed and changes in wound area were measured (as area/area %) in an effort to gauge the persistence of the compounds in the wound site. By day 5, glycerin produced 26.1% wound closure, whereas 4-hydroxy-4′-methoxytolan (2.5%) closed produced 92.8% wound closure and 5% 4-hydroxy-4′-methoxytolan produced 91.4% wound closure. Prior to statistical analysis a test for Normality was run and a Z-score computed to confirm a normally distributed area for each wound on day 1 for all mice across groups, r^2=0.989. Statistics are computed based One-Way ANOVA's comparing changes in wound area on day 5. All mice tolerated the treatments and all weekly clinical observations report bright, alert, responsive, and hydrated mice.

[3] = 2.5% (w/v) topical in glycerin, day 0
[4] = 2.5% (w/v) topical in glycerin, day 5
[5] = 2.5% (w/v) topical in glycerin, day 7
[6] = 2.5% (w/v) topical in glycerin, day 9
[7] = 2.5% (w/v) topical in glycerin, day 11
[8] = 5% (w/v) topical in glycerin, day 0
[9] = 5% (w/v) topical in glycerin, day 5
[10] = 5% (w/v) topical in glycerin, day 7
[11] = 5% (w/v) topical in glycerin, day 9
[12] = 5% (w/v) topical in glycerin, day 11

With `COc1ccc(C#Cc2ccc(O)cc2)cc1` [4-hydroxy-4′-methoxytolan] the Keratinocyte proliferation ([1]; H&E staining) was “extensive keratinocyte proliferation”, the Keratinocyte cell layers ([1]; control 1-2 cells thick) was 7-8 cells thick and the “Average Area” value [2, 3] was 2.07 cm^2. The “Wound Area (%) Closed” value [2, 3] was 0%, the “Average Area” value [2, 4] was 0.15 cm^2 and the “Wound Area (%) Closed” value [2, 4] was 92.8%. For the same compound, the “Average Area” value [2, 5] was 0.04 cm^2, the “Wound Area (%) Closed” value [2, 5] was 100% and the “Average Area” value [2, 6] was 0.00 cm^2. For the same compound, the “Wound Area (%) Closed” value [2, 6] was 100.0%, the “Average Area” value [2, 7] was 0.00 cm^2 and the “Wound Area (%) Closed” value [2, 7] was 100.0%. For the same compound, the “Average Area” value [2, 8] was 1.98 cm^2, the “Wound Area (%) Closed” value [2, 8] was 0% and the “Average Area” value [2, 9] was 0.17 cm^2. For the same compound, the “Wound Area (%) Closed” value [2, 9] was 91.4%, the “Average Area” value [2, 10] was 0.08 cm^2 and the “Wound Area (%) Closed” value [2, 10] was 100%. For the same compound, the “Average Area” value [2, 11] was 0.00 cm^2, the “Wound Area (%) Closed” value [2, 11] was 100.0% and the “Average Area” value [2, 12] was 0.00 cm^2. The “Wound Area (%) Closed” value [2, 12] was 100.0% and the “Tolerability of treatment, weekly clinical observations” value ([2]; topical 2.5% and 5%, Balbc/J male mice) was “tolerated”.
